# Results published in patent US20030161893A1, “PTPase inhibitors and methods of using the same” (priority 2001, published 2003).
# How the values were obtained:
# PTP1B = target: T1, PTP1B (Homo sapiens, UniProt P18031); experiment: In vitro PTPase assay, GST/PTP1B fusion protein; type: biochemical; conditions: 0.1 to 1 μg/ml
# T1 construct: purchased Upstate Biotechnology Inc. (Lake Placid, N.Y.)
# Protocol: In vitro PTPase activities were measured using the commercial protein tyrosine phosphatase assay kit (Upstate Biotechnology, Inc. (“UBI”)) following established procedure known to one of skill in the art. This assay measures the in vitro dephosphorylation of a synthetic phosphotyrosine peptide of the sequence Arg-Arg-Leu-Ile-Glu-Asp-Ala-Gle-Tyr-Ala-Ala-Arg-Gly, wherein the tyrosine is phosphorylated (SEQ ID NO: 3). Briefly, 0.01 μg of GST/PTPase fusion proteins was incubated in 50 μl of Tris buffer (10 mM Tris, pH 7.4) containing different concentrations of inhibitors or chemicals (0-1,000 μg/ml) at 22° C. for 10 minutes, followed by addition of 0.2 mM of the phosphotyrosine peptide and incubation at 22° C. for 18 hours. 100 μl of Malachite Green solution was added and incubated for 5 minutes, and the absorbance at 660 nm was measured after 5 minutes.
# MKP1 = target: T2, MKP1 (Homo sapiens, UniProt P28562); experiment: In vitro PTPase assay, GST/MKP1 fusion protein; type: biochemical
# T2 construct: a pGEX construct containing the coding region of MKP1 cDNA derived by RT-PCR; made in house; host or cells: DH5a bacteria (E. coli)
# T2 sequence (P28562 1-367): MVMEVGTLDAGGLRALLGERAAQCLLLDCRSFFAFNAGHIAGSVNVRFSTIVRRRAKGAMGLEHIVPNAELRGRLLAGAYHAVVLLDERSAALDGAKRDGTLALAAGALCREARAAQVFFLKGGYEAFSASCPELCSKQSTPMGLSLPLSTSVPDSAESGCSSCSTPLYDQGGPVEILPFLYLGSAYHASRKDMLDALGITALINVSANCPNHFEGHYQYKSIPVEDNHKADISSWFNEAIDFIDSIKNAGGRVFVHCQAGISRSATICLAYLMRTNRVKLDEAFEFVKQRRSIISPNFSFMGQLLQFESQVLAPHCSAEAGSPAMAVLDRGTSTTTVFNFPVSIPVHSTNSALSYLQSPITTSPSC
# AML-3 cells = experiment: AML-3 cell differentiation; type: cell-based, human
# WM35 cells = experiment: Cell proliferation assay (MTT), WM35 melanoma cells; type: cell-based, human
# Protocol: (§1) For cell proliferation assays, cells were grown in 10% FCS culture medium containing various amounts of IFNs and/or sodium stibogluconate in 96 well plates and cultured at 37° C. for 3 or 6 days as indicated. The numbers of viable cells in proliferation assays were determined by MTT assays as described in Phatak et al., J. Immunol. 167, 3391 (2001).
# C42 cells = experiment: Cell proliferation assay (MTT), C42 prostate cancer cells; type: cell-based, human
# Protocol: as §1
# WiT49-N1 cells = experiment: Cell proliferation assay (MTT), WiT49-N1 Wilms tumor cells; type: cell-based, human; conditions: day 6
# Protocol: as §1
# Stat1 [1] = experiment: IFN-alpha-induced Stat1 tyrosine phosphorylation, WM9 cells; type: cell-based, human; conditions: WM9, 5 hours post-stimulation
# Protocol: (§2) For induction of Stat1 tyrosine phosphorylation by IFN-alpha in the absence or presence of sodium stibogluconate, cells grown in 10% FCS RPMI 1640 medium at 37° C. were stimulated with IFN-alpha (50 u/ml) for various time points and treated with or without sodium stibogluconate for 5 minutes prior to termination by lysing the cells in cold lysis buffer (1% NP-40; 50 mM Tris, pH 7.4; 100 mM NaCl; 1 mM EDTA, 10% glycerol, 10 mM sodium molybdic acid and 4 mM AEBSF).
# (§3) Cell lysates were prepared by lysing cells in cold lysis buffer for 30 min and cleared by centrifuging at 14,000 rpm at 4° C. for 15 min. For SDS-PAGE, cell lysates were mixed with equal volume of 2×SDS-PAGE sample buffer, heated at 90° C. for 5 min and separated in 10% SDS-PAGE gels. Cellular proteins in SDS-PAGE gels were transferred to nitrocellulose membrane (Schleicher & Schuell, Keene, N.H.), blocked in 5% milk, probed with antibodies and detected by using an enhanced chemiluminescence kit (ECL, Amersham, Arlington Heights, Ill.).
# Stat1 [2] = experiment: IFN-alpha-induced Stat1 tyrosine phosphorylation, WiT49-N1 cells; type: cell-based, human
# Protocol: as §2, §3
# U251 cells = experiment: Cell growth assay (MTT), U251 glioma cells; type: cell-based, human; conditions: 100 μg/ml, day 6
# Protocol: NIH3T3 (Yi, et al., Blood 85, 87 (1995)), WM9 (Forsberg, et al., Proc. Nat. Acad Sci. USA 90, 393 (1993)), DU145 (Mickey, et al., Cancer Res. 37, 4049 (1977)), LoVo (Drewinko, et al., Cancer Res. 36, 467 (1976)), HEY (Buick, et al., Cancer Res. 45, 3668 (1985)), U251 (Yoshida, et al., Cancer 50, 410 (1982)), A549 (Giard, et al., J. Natl. Cancer Inst. 51, 1417 (1973)) and SK-N-SH (Helson, et al., Cancer Res. 35, 2594 (1975)) cell lines have been described and were cultured in RPMI 1640 supplemented with 10% fetal calf serum (FCS). For measurement of sodium stibogluconate effects on cell growth in vitro, cells were cultured in the absence (−) or presence (+) of various amounts of sodium stibogluconate for 6 days with viable cells quantified by MTT assays (Mosmann, J. Imunol. Methods 65, 55 (1983)). Percentages of growth inhibition by sodium stibogluconate were calculated (+/−×%).
# DU145R cells = experiment: Cell growth assay (MTT), DU145R cells; type: cell-based, human; conditions: day 6 culture
# Protocol: DU145 cells were cultured in the presence of sodium stibogluconate (100 μg/ml) in 48 well plates for 3 weeks. Cells from a well containing a single colony were transferred to flasks, cultured in sodium stibogluconate-free medium for 3 weeks and used as DU145R cells for further characterization. Growth of DU145R cells in the absence or presence of sodium stibogluconate in day 6 culture was determined by MTT assays. cDNAs of the coding region of PRLs were derived by RT-PCR from DU145 and DU145R cells and sequenced using primers described below.
# [3] = test system: PML/RAR-alpha chimeric protein; experiment: PML/RAR-alpha chimeric protein expression in NB4 cells; type: cell-based, human
# T1 sequence (P18031 whole entry, species assumed, the tested form may be a part): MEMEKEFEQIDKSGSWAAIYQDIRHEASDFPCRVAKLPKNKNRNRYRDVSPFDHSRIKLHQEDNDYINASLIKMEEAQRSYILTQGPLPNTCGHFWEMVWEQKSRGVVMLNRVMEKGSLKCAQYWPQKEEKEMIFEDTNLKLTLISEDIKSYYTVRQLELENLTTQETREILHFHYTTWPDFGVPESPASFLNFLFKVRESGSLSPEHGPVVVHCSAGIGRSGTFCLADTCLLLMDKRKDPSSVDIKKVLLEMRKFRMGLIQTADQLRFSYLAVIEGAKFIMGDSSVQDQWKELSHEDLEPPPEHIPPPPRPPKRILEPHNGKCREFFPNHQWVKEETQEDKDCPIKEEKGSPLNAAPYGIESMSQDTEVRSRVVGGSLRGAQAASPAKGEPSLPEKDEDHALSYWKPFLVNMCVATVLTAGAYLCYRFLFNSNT
smiles,measurement,setting,value
O.O.O.O.O.O.O.O.O.O=C([O-])[C@@H]1[O][Sb]2([O-])([O][Sb]34([OH])[O][C@H]([C@H](O)CO)[C@H]([O]3)[C@H](C(=O)[O-])[O]4)[O][C@H]([C@H](O)CO)[C@@H]1[O]2.[Na+].[Na+].[Na+] [sodium stibogluconate],inhibition of PTP1B activity,PTP1B,only modestly effective
same,inhibition of MKP1,MKP1,no obvious effects
same,inhibitory activity against MKP1,MKP1,no obvious inhibitory activity
same,differentiation of AML-3 cells,AML-3 cells,inducing differentiation
same,sensitivity of WM35 cells,WM35 cells,minimally affected
same,sensitivity of C42 cells,C42 cells,highly resistant
same,growth inhibition of WiT49-N1 with added IFN-alpha,WiT49-N1 cells,not enhanced by IFN-alpha
same,sensitivity of WiT49-N1 cells,WiT49-N1 cells,sensitive
same,IFN-alpha-induced Stat1 tyrosine phosphorylation,Stat1 [1],Enhanced
same,IFN-alpha-induced Stat1 tyrosine phosphorylation,Stat1 [2],failed to enhance
same,"cell killing, U251",U251 cells,near-complete cell killing
same,growth of DU145R cells versus parental DU145,DU145R cells,growth resistance to sodium stibogluconate
same,expression levels of PML/RAR-alpha chimeric protein,[3],no detectable effect
